For one test, the system named is CD8+ T cells. As to the kind of experiment: In vitro T-cell priming assay with aAPCs loaded with peptide/MHC and anti-CD28, multimer readout. Type of test: cell-based, human. The following applies: in vitro immunogenicity, Table 15B. From the text: In order to obtain information regarding the immunogenicity of the TUMAPs of the present invention, the inventors performed investigations using an in vitro T-cell priming assay based on repeated stimulations of CD8+ T cells with artificial antigen presenting cells (aAPCs) loaded with peptide/MHC complexes and anti-CD28 antibody.
In order to perform in vitro stimulations by artificial antigen presenting cells loaded with peptide-MHC complex (pMHC) and anti-CD28 antibody, the inventors first isolated CD8+ T cells from fresh HLA-A*02 leukapheresis products via positive selection using CD8 microbeads (Miltenyi Biotec, Bergisch-Gladbach, Germany) of healthy donors obtained from the University clinics Mannheim, Germany, after informed consent.
PBMCs and isolated CD8+ lymphocytes were incubated in T-cell medium (TCM) until use consisting of RPMI-Glutamax (Invitrogen, Karlsruhe, Germany) supplemented with 10% heat inactivated human AB serum (PAN-Biotech, Aidenbach, Germany), 100 U/ml Penicillin/100 μg/ml Streptomycin (Cambrex, Cologne, Germany), 1 mM sodium pyruvate (CC Pro, Oberdorla, Germany), 20 μg/ml Gentamycin (Cambrex). 2.5 ng/ml IL7 (PromoCell, Heidelberg, Germany) and 10 U/ml IL-2 (Novartis Pharma, Nurnberg, Germany) were also added to the TCM at this step.
Generation of pMHC/anti-CD28 coated beads, T-cell stimulations and readout was performed in a highly defined in vitro system using four different pMHC molecules per stimulation condition and 8 different pMHC molecules per readout condition.
The purified co-stimulatory mouse IgG2a anti human CD28 Ab 9.3 (Jung et al., 1987) was chemically biotinylated using Sulfo-N-hydroxysuccinimidobiotin as recommended by the manufacturer (Perbio, Bonn, Germany). Beads used were 5.6 μm diameter streptavidin coated polystyrene particles (Bangs Laboratories, Illinois, USA).
800.000 beads/200 μl were coated in 96-well plates in the presence of 4×12.5 ng different biotin-pMHC, washed and 600 ng biotin anti-CD28 were added subsequently in a volume of 200 μl. Stimulations were initiated in 96-well plates by co-incubating […] CD8+ T cells with 2×10^5 washed coated beads in 200 μl TCM supplemented with 5 ng/ml IL-12 (PromoCell) for 3 days at 37° C. Half of the medium was then exchanged by fresh TCM supplemented with 80 U/ml IL-2 and incubating was continued for 4 days at 37° C. This stimulation cycle was performed for a total of three times. For the pMHC multimer readout using 8 different pMHC molecules per condition, a two-dimensional combinatorial coding approach was used as previously described (Andersen et al., 2012) with minor modifications encompassing coupling to 5 different fluorochromes. Finally, multimeric analyses were performed by staining the cells with Live/dead near IR dye (Invitrogen, Karlsruhe, Germany), CD8-FITC antibody clone SK1 (BD, Heidelberg, Germany) and fluorescent pMHC multimers. For analysis, a BD LSRII SORP cytometer equipped with appropriate lasers and filters was used. Peptide specific cells were calculated as percentage of total CD8+ cells. Evaluation of multimeric analysis was done using the FlowJo software (Tree Star, Oregon, USA). In vitro priming of specific multimer+ CD8+ lymphocytes was detected by comparing to negative control stimulations.

For the next test, the target named is HLA-A*02 (Homo sapiens, UniProt P04439, D140Y/D185E/D98H/E176V/E277Q/G131W/G231S/I119V/I121R/I166T/I218V/L300P/N151K/N90K/P208A/P217A/Q86G/Q94H/R138H/R169H). As to the kind of experiment: MHC binding assay by UV-ligand exchange and beta2m ELISA. The following applies: peptide exchange yield. From the text:
Candidate peptides for T cell based therapies according to the present invention were further tested for their MHC binding capacity (affinity). The individual peptide-MHC complexes were produced by UV-ligand exchange, where a UV-sensitive peptide is cleaved upon UV-irradiation, and exchanged with the peptide of interest as analyzed. Only peptide candidates that can effectively bind and stabilize the peptide-receptive MHC molecules prevent dissociation of the MHC complexes. To determine the yield of the exchange reaction, an ELISA was performed based on the detection of the light chain (β2m) of stabilized MHC complexes. The assay was performed as generally described in Rodenko et al. (Rodenko et al., 2006).
96 well MAXISorp plates (NUNC) were coated over night with 2 ug/ml streptavidin in PBS at room temperature, washed 4× and blocked for 1 h at 37° C. in 2% BSA containing blocking buffer. Refolded HLA-A*02:01/MLA-001 monomers served as standards, covering the range of 15-500 ng/ml. Peptide-MHC monomers of the UV-exchange reaction were diluted 100 fold in blocking buffer. Samples were incubated for 1 h at 37° C., washed four times, incubated with 2 ug/ml HRP conjugated anti-β2m for 1 h at 37° C., washed again and detected with TMB solution that is stopped with […]. Absorption was measured at 450 nm. Candidate peptides that show a high exchange yield (preferably higher than 50%, most preferred higher than 75%) are generally preferred for a generation and production of antibodies or fragments thereof, and/or T cell receptors or fragments thereof, as they show sufficient avidity to the MHC molecules and prevent dissociation of the MHC complexes.
A general note: An ELISA detects its analyte on a solid surface through an enzyme-linked reagent.

The values below come from US11786584B2, “Peptides and combination of peptides for use in immunotherapy against prostate cancer and other cancers” (Immatics Biotechnologies GmbH, priority 2015, dated 2023).

Regarding “6 (ALLESRVNL; listed as Homo sapiens) [compound 6]”, the “Wells positive [%]” value with CD8+ T cells is “+ (<20% = +)”. Also, the Peptide exchange entry with HLA-A*02 is “++++ (>75% = ++++)”.
